Experimental data: patent US20200246268A1, “CPZEN COMPOSITIONS AND USES” (PAI Life Sciences Inc., priority 2017, published 2020)
Values joined by “and” are separate entries in the source; they are usually repeats but may differ in a detail not shown here. Identical values can stand only once.

What was measured:
[1] = Accelerated stability study: assay and related substances by HPLC; format: physicochemical; settings: for CPZEN-45 assay by HPLC / Related Substances by HPLC: CPZEN-45 API
Protocol: Drugs were stored either individually as a free-flowing powder, as a 1:1 spray-dried formulation of capreomycin and CPZEN-45 as a free-flowing powder, or as a 1:1 spray-dried formulation in #3 hydroxypropylmethylcellulose (HPMC) capsules. All samples were deposited into 5 mL screw-top glass vials. Samples were collected at the beginning of the study, after 1 week, 1 month, 3 months, and 6 months. HPLC-based methods for detecting CPZEN-45, capreomycin, and degradation products are described in the “Methods” section below.
(§1) Capreomycin and CPZEN-45 content for forced degradation, stability, and impactor studies was measured by RP-HPLC with a Shimadzu system consisting of an SCL-10AVP system controller, two LC-10ADVP pumps, a DGU-14A degasser, SIL-10A autoinjector, and SPD-M10AVP diode array detector. […] All peaks were detected at wavelength 265 nm. Linearity for total capreomycin was obtained between 1 and 75 μg/mL (R^2=0.996) with a limit of detection (LOD) of 0.74 μg/mL. Linearity for CPZEN-45 was obtained between 0.5 and 100 μg/mL (R^2=0.996) with an LOD of 1.03 μg/mL.

[2] = format: physicochemical; settings: base treatment (0.1 M NaOH, pH=12.8, 72 hours)
Protocol: Prior to evaluating the long-term stability of a spray-dried combination powder, multiple forced degradations on capreomycin and CPZEN-45 were performed before determining the chromatographic profile of treated materials and monitoring absorbance at 265 nm using a Shimadzu RP-HPLC unit. By this method, it was confirmed that it was possible to detect drug degradation as well as any degradants generated.
Forced degradations were performed by subjecting aqueous solutions of non-spray-dried capreomycin or CPZEN-45 at 0.1 mg/mL to multiple conditions (all at 23° C. unless noted otherwise): control (no treatment, 72 hours), acid (0.1 M HCl, pH=1.2, 72 hours), base (0.1 M NaOH, pH=12.8, 72 hours), oxidizer (3% w/v 2Na2CO3 3H2O2 (sodium percarbonate), 72 hours), 60° C. for 72 hours, or 90° C. for 30 minutes.
as §1, with “1.03 μg/mL. […]” for “1.03 μg/mL.”

porcine stomach mucin = assay: Mucin binding dialysis assay
Protocol: Mucin binding was evaluated using a dialysis assay developed previously (Huang et al., 2015). Briefly, 100 μL of capreomycin, CPZEN-45, or a 50:50 combination of both at 4 mg/mL per drug was suspended in 900 μL Dulbecco's PBS without calcium or magnesium (Lonza, Cat. #17-512F) either with or without 12.5% (wt./vol) porcine stomach mucin (Sigma-Aldrich, Cat. #M1778, type III, bound sialic acid 0.5% to 1.5%, partially purified powder). The resulting mixtures were placed in Spectra/Por dialysis bags (6- to 8-kDa molecular mass cutoff, 32-mm flat width, 20.4-mm diameter; 3.3-ml/cm volume; Spectrum Laboratories, Cat. #132655, Rancho Dominguez, Calif.), with the tube ends closed using standard dialysis bag closures. […] Dialysate samples (200 μl) were collected at 10, 60, 120, and 240 minutes and the antibiotic concentration within each dialysate was determined by HPLC UV/vis analysis. The percentage of each antibiotic detected in the dialysate was calculated relative to the theoretical total concentration based on 400 μg of antibiotic in an 11-ml total volume. […]
Colistin sulfate content was measured via mass spectrometry on an Agilent 6460 Triple Quadrupole LC/MS System with a Waters Cortecs UPLC C18 1.6 2.1×50 mm column.

[3] = in vivo; cited from earlier work
[4] = 40° C./75% RH table, T = 3 MON, footnote: due to melting values after month 3 are 30° C./60% RH
[5] = 40° C./75% RH table, T = 6 MON, footnote: due to melting values after month 3 are 30° C./60% RH

With `CCCCc1ccc(NC(=O)C2=CCN(C)[C@@H]([C@H](O[C@@H]3O[C@H](CN)[C@@H](O)[C@H]3O)[C@H]3O[C@@H](n4ccc(=O)[nH]c4=O)[C@H](O)[C@@H]3O)C(=O)N2C)cc1` [CPZEN-45] the “Stability in accelerated stability studies” value [1] was “highly stable”, the “CPZEN-45 assay by HPLC” value ([1]; 25° C./60% RH, T = 0, replicates 1-3 and average ± RSD) was 98.1% and 98.0% and 95.3% and the “Related Substances by HPLC” value ([1]; 25° C./60% RH, T = 1 MON, replicates 1-3 and average) was 0.7%. For the same molecule, the “CPZEN-45 assay by HPLC” value ([1]; 25° C./60% RH, T = 1 MON, replicates 1-3 and average ± RSD) was 100.7% and 98.0% and 99.5%, the “Related Substances by HPLC” value ([1]; 25° C./60% RH, T = 1 WEEK, replicates 1-3 and average) was 0.4% and the “CPZEN-45 assay by HPLC” value ([1]; 25° C./60% RH, T = 1 WEEK, replicates 1-3 and average ± RSD) was 96.2% and 95.8% and 97.1%. For the same molecule, the “Related Substances by HPLC” value ([1]; 25° C./60% RH, T = 3 MON, replicates 1-3 and average) was 0.4% and 0.6%, the “CPZEN-45 assay by HPLC” value ([1]; 25° C./60% RH, T = 3 MON, replicates 1-3 and average ± RSD) was 98.0% and 103.2% and the “Related Substances by HPLC” value ([1]; 25° C./60% RH, T = 6 MON, replicates 1-3 and average) was 0.8%. For the same molecule, the “CPZEN-45 assay by HPLC” value ([1]; 25° C./60% RH, T = 6 MON, replicates 1-3 and average ± RSD) was 97.2% and 98.4% and 97.1%, the “CPZEN-45 assay by HPLC” value [1, 4] was 97.2% and 101.0% and 102.8% and the “Related Substances by HPLC” value [1, 4] was 0.6% and 0.8%. For the same molecule, the “CPZEN-45 assay by HPLC” value [1, 5] was 96.5% and 98.0% and 97.5%, the “Related Substances by HPLC” value [1, 5] was 1.4% and 1.2% and the “CPZEN-45 assay by HPLC” value ([1]; 40° C./75% RH, T = 0, replicates 1-3 and average ± RSD) was 98.1% and 98.0% and 95.3%. The “Related Substances by HPLC” value ([1]; 40° C./75% RH, T = 1 MON, replicates 1-3 and average) was 2.5% and 1.8% and 2.0%, the “CPZEN-45 assay by HPLC” value ([1]; 40° C./75% RH, T = 1 MON, replicates 1-3 and average ± RSD) was 100.3% and 96.0% and 94.4% and the “Related Substances by HPLC” value ([1]; 40° C./75% RH, T = 1 WEEK, replicates 1-3 and average) was 0.5%. For the same molecule, the “CPZEN-45 assay by HPLC” value ([1]; 40° C./75% RH, T = 1 WEEK, replicates 1-3 and average ± RSD) was 96.1% and 96.4% and 95.9%, the “Loss of the original mass of intact compound” value [2] was “approximately 88%” and the “Percentage of efflux in the presence of mucin relative to samples without mucin” value (porcine stomach mucin; not told) was 48%. For the same molecule, the Oral availability [3] was “not orally available due to poor absorption from the gastrointestinal tract”.
In the case of colistin sulfate, the “Percentage of efflux in the presence of mucin relative to samples without mucin” value (porcine stomach mucin; after 4 hours, drug alone, 12.5% porcine stomach mucin, 37° C.) is reported as 20%.
